The values that follow come from patent US20200179308A1, “USE OF ISOHUMULONES AND DERIVATIVES THEREOF TO TREAT POLYCYSTIC OVARY SYNDROME” (KINDEX PHARMACEUTICALS, INC., priority 2017, published 2020).

Format in all cases: in vivo
Assay [1] deals with DIO female mice. Description: Liver lipid accumulation, H&E staining quantified with ImageJ. How it is done: Liver tissues were collected and placed immediately in 10% formalin. 5 μm sections of tissue were stained with H&E by the Johns Hopkins Molecular and Comparative Pathobiology Phenotyping Core. Quantification of the area of fat in liver tissue was measured with NIH imageJ software and compared across groups.

Assay [2] is described as follows: Weight gain on high fat diet in DIO female mice. The following applies: female mice on 60% HFD; oral once a day; KDT501 100 mg/kg, PIO 30 mg/kg; compared to VEH. An excerpt:
To generate DIO mice, 7 week old female mice on a mixed strain background (129SvJ, C57B16, CD1) were placed and maintained on a high fat diet (HFD) for 8 weeks prior to study and throughout the course of study. The high fat diet consisted of 60% Kcal from fat with an energy density of 5.24 kcal/gm (D12492, Research Diets, Inc., New Brunswick, N.J., USA).
Wood chip bedding was maintained in these cages so that mice would not supplement their diet by eating the standard corncob bedding. Mice were weighed every week. The regular chow diet (Tekland Global 18% protein diet) was 24% Kcal from protein, 58% Kcal from carbohydrate, and 18% Kcal from fat with an energy density of 3.1 kcal/g (Harlan Laboratories, Indianapolis, Ind., USA). All procedures were performed with approval by the Johns Hopkins Animal Care and Use Committee under standard light and dark cycles.
At 80 days after introduction to high fat diet, the test compounds were administered orally to the mice once a day. […]
Female mice fed a high fat diet (60% calories from fat) gained approximately 4 grams of weight during the 8 week study period (FIG. 1). […] All data were analyzed with using Prism Software 5 GraphPad Software (La Jolla, CA) and are expressed as means ±SEM. Significance was determined via unpaired two- tailed Student t-test, one- or two-way ANOVA with the appropriate post-hoc tests. […]

Assay [3] has as its system DIO female mice. Put plainly: Insulin tolerance test (ITT), whole body insulin sensitivity. Here is the method:
(§1) To begin to assess the effects of drug treatment on glucose metabolism in female DIO mice, IP-glucose tolerance test (IP-GTT) was performed. One month after drug treatment, mice were tested for glucose tolerance by IP-GTT. The mice were fasted overnight for 16 hours, blood was drawn through the tail vein and baseline blood glucose was measured using a OneTouch Ultra glucometer. 20% dextrose was injected IP (2 g/kg body weight). Sample blood glucose was measured at 15, 30, 60, 90 and 120 minutes. One week after IP-GTT, the mice were tested for whole body insulin sensitivity by insulin tolerance test (ITT). Mice were fasted for seven hours, blood was drawn through the tail vein and baseline blood glucose was measured as above. 0.3 units/kg insulin was injected IP. Blood glucose of each mouse were measured at 15, 30, 60, 90 and 120 minutes. Area under the curve (AUC) was calculated for both the IP-GTT and the ITT.

In assay [4] the test system is DIO female mice. Put plainly: Fasting serum insulin, leptin and IL-6 by Luminex assay. Particulars: between VEH, KDT501 and PIO groups. How it is done: (§2) To measure serum levels of LH, FSH, insulin, and leptin, serum samples were collected from mice via mandibular bleed. Mice were fasted overnight, and insulin or saline was injected IP according to the body weight of the mice (0.3 units/kg). Samples were obtained between 9:00 and 10:00 am on diestrus for baseline LH and FSH so as to avoid cycle dependent LH surges that occur in the late afternoon on the evening of proestrus. Rodent morning LH levels are not thought to vary in a cycle dependent manner (Helena et al. 2006). For fasting measurements of insulin, samples were also obtained between 9:00 and 10:00 am. Tissues were collected 10 minutes after insulin injection and snap-frozen in liquid nitrogen. Protein was obtained and measured as described previously (Brothers et al. 2010). To quantify the levels of phosphorylated AKT (pAKT), and AKT for different tissues of each individual animal after insulin or saline injection, Bio-Plex Phosphoprotein Detection Multiplex assays were used (Bio-Rad Laboratories, Hercules, Calif.). Protein ([…]) from each tissue was loaded into a 96-well microplate. Assays were conducted using the Luminex 200 system. Values were assessed as mean fluorescent intensity of phospho-specific signal. Serum was analyzed on a Luminex 20015 platform using the Milliplex Map mouse pituitary panel (LH/FSH) and a Milliplex mouse metabolic panel (insulin/leptin; Millipore, Billerica, Mass., USA). The assay detection limit for LH was 0.0019 ng/mL; for FSH, 0.0095 ng/mL; for insulin, 13.0 pg/mL; and for leptin, 4.2 pg/mL. Serum Testosterone was measured by radioimmunoassay at the University of Virginia Ligand Assay Core.

Assay [5] deals with DIO female mice. Description: Estrous cyclicity by vaginal cytology over 15 consecutive days. Particulars: for percent of mice acyclic (did not complete even 1 complete estrous cycle): 15 day period beginning 10 days after treatment. How it is done: Diet-induced obesity has been reported to impair estrous cyclicity in female mice (Brothers et al., Wu et al.). In these studies, DIO females were treated with KDT501, PIO or VEH beginning 8 weeks after change to high fat diet. Mice were assessed for estrous cycle stage for 15 consecutive days beginning 10 days after drug/VEH treatment. Vaginal cytology was assessed daily between 9 and 10 am for 15 consecutive days beginning the 10th days after drug treatment. Vaginal cells were collected via saline lavage and then fixed with 100% ethanol and stained with the DIFF Quick Stain Kit (IMEB Inc., San Marcos, Calif., USA). Stages were assessed based on vaginal cytology (Nelson et al. 1982): predominant cornified epithelium indicated the estrus stage, predominant nucleated cells indicated the proestrus stage, both cornified and leukocytes indicated the metestrus stage, and predominant leukocytes indicated the diestrus stage. The percentage of mice at each different cycle stage in each group was calculated.

Assay [6] deals with DIO female mice. Description: Serum pituitary gonadotropin (LH, FSH) levels, Luminex Milliplex mouse pituitary panel. The following applies: KDT501 100 mg/kg, PIO 30 mg/kg oral once a day, compared to VEH. How it is done: as §2
Assay [7] concerns DIO female mice. Description: IP-glucose tolerance test (IP-GTT). The following applies: one month after drug treatment, relative to VEH. Here is the method: as §1
The mark [8] stands for this setting: 15 day period, KDT501 100 mg/kg, PIO 30 mg/kg.

Where “and” joins values, the source holds several entries; their conditions need not be identical. Identical values can stand only once. Entries after “also recorded” stand apart in the source; their conditions may differ.

Consider `CC(C)CCC(=O)[C@@]1(O)C([O-])=C(C(=O)CC(C)C)C(=O)[C@@H]1CCC(C)C.[K+]` [KDT501, Potassium salt of (+)-KDT500], for which, in the assay on DIO female mice [1] (KDT501 100 mg/kg compared to PIO 30 mg/kg), the “fat / lipid accumulation in liver, KDT501 versus PIO” value was “significantly less lipid accumulation; also recorded: significantly less fat”. Moreover, in the assay with DIO female mice [1] (KDT501 100 mg/kg, PIO 30 mg/kg, relative to VEH), the “fat / lipid accumulation in liver” value is “significantly less lipid accumulation; also recorded: significant reduction in fat”. The “weight gain (Δ weight from week 0) over the 8 week study period” value in assay [2] was “no weight gain; also recorded: attenuated weight gain”. The “insulin sensitivity, ITT area under the curve (AUC)” value in the assay on DIO female mice [3] (0.3 units/kg insulin IP, relative to VEH) was “improved insulin sensitivity”. Besides, the “fasting glucose levels (7 hrs fasting)” value in the assay on DIO female mice [3] (before insulin injection, compared to VEH controls) was “lower fasting glucose levels”. For the same compound, in the assay with DIO female mice [4], the “fasting serum IL-6 level” value is “not significantly different; also recorded: No significant differences”, the “fasting serum insulin level” value is listed as “not significantly different; also recorded: No significant differences” and the “fasting serum leptin level” value was “not significantly different; also recorded: No significant differences”. In the assay on DIO female mice [5] (KDT501 100 mg/kg, PIO 30 mg/kg), the “percent of mice acyclic (did not complete even 1 complete estrous cycle)” value stood at 7.1%. Further, in the assay with DIO female mice [5] (setting [8]), the “percentage of mice that completed 3 complete estrous cycles” value amounted to 20%, the “percentage of mice that had (at least) two complete estrous cycles” value came out at 60% and the “percentage of mice that had one complete estrous cycle” value was “Roughly an even percentage”. Moreover, the “number of complete estrous cycles per mouse” value in the assay on DIO female mice [5] (15 days of analysis, compared to VEH) is recorded as “significantly more complete estrous cycles; also recorded: significant increase in number of cycles/mouse”. Further, in the assay on DIO female mice [6], the “morning serum FSH level” value was “not significantly altered”, the “morning serum LH level” value is “not significantly altered” and the “ratio of LH/FSH” value is “no significant difference”. The “glucose tolerance (blood glucose after IP dextrose)” value with DIO female mice [7] (16 h fast, 2 g/kg dextrose IP) is “improved glucose tolerance”. Besides, in the assay with DIO female mice [7], the “glucose tolerance, IP-GTT area under the curve (AUC)” value was “significant improvement in glucose tolerance”.
As for `CCc1ccc(CCOc2ccc(CC3SC(=O)NC3=O)cc2)nc1` (stereo not drawn) [PIO, Pioglitazone, reference compound], the “percent of mice acyclic (did not complete even 1 complete estrous cycle)” value in the assay on DIO female mice [5] (KDT501 100 mg/kg, PIO 30 mg/kg) amounted to 20%. In addition, in the assay with DIO female mice [5] (setting [8]), the “percentage of mice that completed 3 complete estrous cycles” value is 21% and 28%; the “percentage of mice that had (at least) two complete estrous cycles” value is 25-28%.
